Reference: patent publication US12071430B2 (The Johns Hopkins University, priority 2011, dated 2024)
Converted amounts (≈) assume the structure as drawn. Where two headings read alike, the source gives them in different places.

Columns and labels:
CYP3A4 = target: T1, CYP3A4 (Homo sapiens, UniProt P08684); assay: CYP3A4 enzyme assay (Vivid CYP3A4 Green Screening Kit); format: in vitro ADME; settings: dose-response, FIG. 2 / FIG. 6; read-out: IC50 for CYP3A4 inhibition
T1 construct: purchased ThermoFisher P2857; host or cells: baculosomes (insect-cell microsomes, own knowledge)
T1 sequence (P08684 whole entry): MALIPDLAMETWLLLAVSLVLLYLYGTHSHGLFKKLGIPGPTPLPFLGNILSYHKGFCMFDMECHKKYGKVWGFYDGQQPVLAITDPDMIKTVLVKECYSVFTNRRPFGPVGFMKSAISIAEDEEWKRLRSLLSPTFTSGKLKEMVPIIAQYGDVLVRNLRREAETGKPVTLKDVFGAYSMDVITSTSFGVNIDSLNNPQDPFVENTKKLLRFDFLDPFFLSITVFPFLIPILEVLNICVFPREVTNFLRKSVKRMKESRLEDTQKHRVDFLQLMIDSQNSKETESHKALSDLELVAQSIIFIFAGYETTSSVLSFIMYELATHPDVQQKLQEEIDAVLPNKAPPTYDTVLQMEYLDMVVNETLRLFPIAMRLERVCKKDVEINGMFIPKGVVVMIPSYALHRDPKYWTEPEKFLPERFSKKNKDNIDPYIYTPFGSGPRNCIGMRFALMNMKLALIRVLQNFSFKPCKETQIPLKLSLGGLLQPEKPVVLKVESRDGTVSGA
Procedure, shortened: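 Cell-free fluorescence assay with CYP3A4 baculosomes preincubated with drug 10 min at 37° C before Vivid substrate addition. Fluorescence (ex/em 485/520) read every 1 min for 60 minutes. Compounds tested at 1 μM final concentration.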

HUVEC [1] = assay: HUVEC proliferation, [3H]-thymidine incorporation assay; format: cell-based; settings: Homo sapiens, mean ± SD, three independent experiments, read-out: HUVEC inhibition IC50
HUVEC [2] = assay: as above; format: cell-based, human; settings: [3H]-thymidine incorporation; mean ± SD, three independent experiments; read-out: HUVEC inhibition IC50
Procedure, shortened: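 Proliferation read as [3H]-thymidine uptake (1 μCi, 6 h pulse) after 24 h drug treatment in triplicate. Cells: HUVEC at passage ≤8 grown in EGM-2, plated 2000/well the night before; IC50 fitted from scintillation counts.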

[3] = Aqueous solubility test in 0.001N HCl; format: physicochemical
Procedure, shortened: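 Compound from 10 mM DMSO stock added to 0.001N HCl (pH 3) to saturation, shaken 24 h at room temperature at 600 rpm, then centrifuged to remove undissolved material. Supernatant concentration determined by LC/MS (SIM of M+1 and M+23 ions) against a per-compound standard curve.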

HUVEC [4] = assay: HUVEC tube formation assay on Matrigel; format: cell-based; settings: Homo sapiens, 24 h, read-out: inhibition of HUVEC tube formation (total tube length)
HUVECs = assay: Filipin staining of intracellular cholesterol (NPC phenotype); format: cell-based, human; settings: HUVEC, 0.2 μM, 24 h
Source text: Nieman-Pick C phenotype and mTOR inhibition. […] We thus determined whether compound 48 shared the same mechanism with itraconazole. The intracellular cholesterol was detected using the cholesterol-binding fluorescent dye filipin. […] It is known that AMPK activation leads to mTOR inhibition.
Inhibition of NPC1. NPC1 plays an essential role in cholesterol export from the endolysosome. […] At a close view (FIG. 9B), the linear pyridinyl-piperizin-1-yl-phenyl core of compound 14 nestled into the hydrophobic channel created by the transmembrane helix. The isobutyl tail faced toward the open entrance of this channel. The tetrazole moiety pointed into the closed end of the pocket and interacted with the hydroxyl group of Tyr1225 via hydrogen bonding.
Filipin staining. 2000 HUVECs were plated in chamber slide with 1 ml media and allowed to settle overnight. […] The the cells were fixed with 4% paraformaldehyde for 15 min. After washed, cells were incubated with 500 ul 50 ug/ml filipin solution for 1 hour in the dark. Then the cells were washed twice with PBS, mounted and covered with coverslip. The images were taken using confocal microscope under 360/460 nm.

VEGFR2 [5] = assay: Western blot, VEGFR2 glycosylation in HUVEC; format: cell-based, human; settings: 24 h
Procedure: mTOR and VEGFR2 inhibition. We then determined the effects of compound 14 on AMPK/mTOR activity and VEGFR2 glycosylation. […] We observed two VEGFR2 bands by Western blotting, representing differentially glycosylated forms of the receptor, with the higher molecular weight band being more predominant in untreated HUVEC. […] The high molecular weight species of VEGFR2 disappeared upon treatment with compound 14 at concentrations of 0.5 μM or higher (FIG. 10A). We next determined whether compound 14 and other analogs affected cellular localization of VEGFR2 using immunofluorescence (FIG. 10B). […] In contrast, in the untreated cells VEGFR2 was uniformly distributed in small puncta throughout the cytoplasm. As a critical component of lipid rafts, cholesterol is pivotal to intracellular transportation and cell signaling.
Western blot. […] Then cells were lysed using RIPA buffer and the protein concentration were measured and normalized. After electrophoresis and transfer onto 0.45 um nitrocellulose membranes, the membranes were bolted with 5% BSA for 1 h and then incubated overnight at 4° C. Secondary antibody was applied to each membrane for 1 hour. Bolts were imaged using Syngene PXi imaging system after adding chemiluminescent substrate. […]

VEGFR2 [6] = assay: Immunofluorescence assay, VEGFR2 cellular localization; format: cell-based, human; settings: HUVEC, 2 μM, 24 h, colocalized with GM130
Procedure: Immunofluorescence assay. HUVECs (5000) were seeded in 4-well chamber slide (Nunc™ Lab-Tek™ II) with 1 mL media and cultured overnight. Cells were treated with […] drugs or DMSO for 24 h. The media was then aspirated and washed 3 times with PBS. Cells were fixed with 4% paraformaldehyde for 15 min, washed three times with PBS, permeabilized with 0.1% Triton X and washed again. 2% BSA blocking buffer was applied to the cells for 1 h. The primary antibodies of VEGFR2 (1:50, cell signaling, #2479) and GM130 (1:1000, BD, #610823) were incubated overnight at 4° C. After washing 3 times with 0.5% BSA in PBS, secondary antibody solutions (1:1000 goat anti-rabbit Alexa Fluor 488, Invitrogen, #A11008 and 1:1000 goat anti-mouse Alexa Fluor 594, Invitrogen, A11005) were applied at room temperature for 1 h in the dark. After washing 3 times, slides were incubated in 0.1 μg/mL DAPI solution for 5 min and rinsed 2 times with PBS. The coverslip was mounted with Immunount (Fisher) and sealed with nail polish. Confocal images were taken using Zeiss LSM700 confocal microscope with 20× lenses.

mTOR = assay: Western blot, mTOR inhibition in HUVEC; format: cell-based, human
Procedure: (§1) Western blot. […] Then cells were lysed using RIPA buffer and the protein concentration were measured and normalized. After electrophoresis and transfer onto 0.45 um nitrocellulose membranes, the membranes were bolted with 5% BSA for 1 h and then incubated overnight at 4° C. Secondary antibody was applied to each membrane for 1 hour. Bolts were imaged using Syngene PXi imaging system after adding chemiluminescent substrate. The following antibodies were used for the assay: AMPKα (1:1,000, cell signaling, #2532s), phosphor-AMPKα (1:1,000, cell signaling #2535s), ACC (1:1,000, cell signaling #3662s), phosphor-ACC (1:1,000, cell signaling, #3661s), mTOR (1:1,000, cell signaling, #2972S), phosphor-mTOR (1:1,000, cell signaling, #9234s), p70 S6 Kinase (1:1,000, senta cruz, #sc-8418), phosphor-p70 S6 Kinase (1:1,000, cell signaling, #3662s), anti-Rabbit IgG (1:10000, GE lifesciences, #NA934V).

AMPK = assay: Western blot, AMPK activation in HUVEC; format: cell-based, human; settings: 24 h, dose-dependent
Procedure: as §1

IC50 (CYP3A4): 95000 nM
increase in solubility compared to itraconazole ([3]; 0.001N HCl): over 90 fold
solubility at 24 h ([3]; 0.001 N HCl aqueous buffer, simulated gastric fluid, kinetic from dmso stock, thermodynamic solubility, HPLC, pH=3, room temperature, 24 h): 0.951 µg/mL (≈ 1.34 µM)
Structure (SMILES): CCC(C)n1ncn(-c2ccc(N3CCN(c4ccc(OC[C@@H]5CO[C@@](Cn6cnnn6)(c6ccc(Cl)cc6Cl)O5)cn4)CC3)cc2)c1=O (stereo partly drawn) [Compound 14, 4-(4-(4-(5-(((2S,4R)-2-((1H-tetrazol-1-yl)methyl)-2-(2,4-dichlorophenyl)-1,3-dioxolan-4-yl)methoxy)pyridin-2-yl)piperazin-1-yl)phenyl)-2-(sec-butyl)-2,4-dihydro-3H-1,2,4-triazol-3-one]
IC50 (HUVEC [1]): 77 nM
IC50 (HUVEC [2]): 77.1 ± 11.9 nM
inhibition at 3 µM (HUVEC [4]): 70%
induction of NPC phenotype (cholesterol accumulation) (HUVECs): massive build-up of cholesterol
VEGFR2 glycosylation, band mobility (VEGFR2 [5]): mobility shift to the lower molecular weight, hypoglycosylated band
concentration at which the high molecular weight species of VEGFR2 disappeared (VEGFR2 [5]): ≥ 0.5 µM
VEGFR2 cellular localization (VEGFR2 [6]): accumulated in the perinuclear region
S6K phosphorylation at higher doses (mTOR; 1 μM and 2 μM): completely abolished
mTOR inhibition (phosphorylation of mTOR / p70 S6K) (mTOR; 24 h): potently inhibited
AMPK activation (phosphorylation of AMPK Thr172 / substrate ACC) (AMPK): activated AMPK
